Source: the CheMixHub ionic liquid set

Assay: xn = mol fraction of the nth substance listed
Details: 288.15 K, 101 kPa

Cc1ncc(C[n+]2csc(CCO)c2C)c(N)n1.Cl.[Cl-] + CCCCCCCCCCCCOS(=O)(=O)[O-].[Na+] + O
Details | electrical conductivity [S/m]
x2 = 0, x1 = 1.8e-07 | 0.00237
x2 = 0, x1 = 9e-07 | 0.0045
x2 = 0, x1 = 1.8e-06 | 0.00578
x2 = 7.35e-06, x1 = 1.8e-07 | 0.00538
x2 = 7.35e-06, x1 = 9e-07 | 0.0077
x2 = 7.35e-06, x1 = 1.8e-06 | 0.00928
x2 = 1.463e-05, x1 = 1.8e-07 | 0.00837
x2 = 1.463e-05, x1 = 9e-07 | 0.0109
x2 = 1.463e-05, x1 = 1.8e-06 | 0.0127
x2 = 2.18e-05, x1 = 1.8e-07 | 0.0112
x2 = 2.18e-05, x1 = 9e-07 | 0.0139
x2 = 2.18e-05, x1 = 1.8e-06 | 0.016
x2 = 2.901e-05, x1 = 1.8e-07 | 0.0139
x2 = 2.901e-05, x1 = 9e-07 | 0.0169
x2 = 2.901e-05, x1 = 1.8e-06 | 0.0192
x2 = 3.604e-05, x1 = 1.8e-07 | 0.0167
x2 = 3.604e-05, x1 = 9e-07 | 0.0197
x2 = 3.604e-05, x1 = 1.8e-06 | 0.0224
x2 = 4.307e-05, x1 = 1.8e-07 | 0.0194
x2 = 4.307e-05, x1 = 9e-07 | 0.0225
x2 = 4.307e-05, x1 = 1.8e-06 | 0.0255
x2 = 4.991e-05, x1 = 1.8e-07 | 0.0221
x2 = 4.991e-05, x1 = 9e-07 | 0.0253
x2 = 4.991e-05, x1 = 1.8e-06 | 0.0285
x2 = 5.676e-05, x1 = 1.8e-07 | 0.0248
x2 = 5.676e-05, x1 = 9e-07 | 0.0281
x2 = 5.676e-05, x1 = 1.8e-06 | 0.0314
x2 = 6.361e-05, x1 = 1.8e-07 | 0.0274
x2 = 6.361e-05, x1 = 9e-07 | 0.0307
x2 = 6.361e-05, x1 = 1.8e-06 | 0.0342
x2 = 7.027e-05, x1 = 1.8e-07 | 0.0299
x2 = 7.027e-05, x1 = 9e-07 | 0.0332
x2 = 7.028e-05, x1 = 1.8e-06 | 0.037
x2 = 7.694e-05, x1 = 1.8e-07 | 0.0324
x2 = 7.694e-05, x1 = 9e-07 | 0.0357
x2 = 7.694e-05, x1 = 1.8e-06 | 0.0397
x2 = 8.361e-05, x1 = 1.8e-07 | 0.0349
x2 = 8.361e-05, x1 = 9e-07 | 0.0382
x2 = 8.361e-05, x1 = 1.8e-06 | 0.0425
x2 = 9.009e-05, x1 = 1.8e-07 | 0.0374
x2 = 9.009e-05, x1 = 9e-07 | 0.0407
x2 = 9.009e-05, x1 = 1.8e-06 | 0.0452
x2 = 9.658e-05, x1 = 1.8e-07 | 0.0398
x2 = 9.658e-05, x1 = 9e-07 | 0.0431
x2 = 9.658e-05, x1 = 1.8e-06 | 0.0478
x2 = 0.0001031, x1 = 1.8e-07 | 0.0422
x2 = 0.0001031, x1 = 9e-07 | 0.0456
x2 = 0.0001031, x1 = 1.8e-06 | 0.0503
x2 = 0.0001094, x1 = 1.8e-07 | 0.0446
x2 = 0.0001094, x1 = 9e-07 | 0.048
x2 = 0.0001094, x1 = 1.8e-06 | 0.0522
x2 = 0.0001157, x1 = 1.8e-07 | 0.0465
x2 = 0.0001157, x1 = 9e-07 | 0.0502
x2 = 0.0001157, x1 = 1.8e-06 | 0.0539
x2 = 0.000122, x1 = 1.8e-07 | 0.0486
x2 = 0.000122, x1 = 9e-07 | 0.0523
x2 = 0.000122, x1 = 1.8e-06 | 0.0555
x2 = 0.0001281, x1 = 1.8e-07 | 0.0508
x2 = 0.0001281, x1 = 9e-07 | 0.0541
x2 = 0.0001281, x1 = 1.8e-06 | 0.0571
x2 = 0.0001342, x1 = 1.8e-07 | 0.0527
x2 = 0.0001342, x1 = 9e-07 | 0.0558
x2 = 0.0001342, x1 = 1.8e-06 | 0.0587
x2 = 0.0001404, x1 = 1.8e-07 | 0.0545
x2 = 0.0001404, x1 = 9e-07 | 0.0573
x2 = 0.0001404, x1 = 1.8e-06 | 0.0601
x2 = 0.0001465, x1 = 1.8e-07 | 0.0561
x2 = 0.0001465, x1 = 9e-07 | 0.0587
x2 = 0.0001465, x1 = 1.8e-06 | 0.0614
x2 = 0.0001524, x1 = 1.8e-07 | 0.0577
x2 = 0.0001524, x1 = 9e-07 | 0.0599
x2 = 0.0001524, x1 = 1.8e-06 | 0.0625
x2 = 0.0001584, x1 = 1.8e-07 | 0.059
x2 = 0.0001584, x1 = 9e-07 | 0.0611
x2 = 0.0001584, x1 = 1.8e-06 | 0.0636
x2 = 0.0001641, x1 = 1.8e-07 | 0.0602
x2 = 0.0001641, x1 = 9e-07 | 0.0622
x2 = 0.0001641, x1 = 1.8e-06 | 0.0647
x2 = 0.0001699, x1 = 1.8e-07 | 0.0613
x2 = 0.0001699, x1 = 9e-07 | 0.0633
x2 = 0.0001699, x1 = 1.8e-06 | 0.0657
x2 = 0.0001757, x1 = 1.8e-07 | 0.0622
x2 = 0.0001757, x1 = 9e-07 | 0.0643
x2 = 0.0001757, x1 = 1.8e-06 | 0.0667
x2 = 0.0001814, x1 = 1.8e-07 | 0.0632
x2 = 0.0001814, x1 = 9e-07 | 0.0654
x2 = 0.0001814, x1 = 1.8e-06 | 0.0677
x2 = 0.000187, x1 = 1.8e-07 | 0.0641
x2 = 0.000187, x1 = 9e-07 | 0.0664
x2 = 0.000187, x1 = 1.8e-06 | 0.0687
x2 = 0.0001928, x1 = 1.8e-07 | 0.0649
x2 = 0.0001928, x1 = 9e-07 | 0.0673
x2 = 0.0001928, x1 = 1.8e-06 | 0.0697
x2 = 0.0001982, x1 = 1.8e-07 | 0.0658
x2 = 0.0001982, x1 = 9e-07 | 0.0683
x2 = 0.0001982, x1 = 1.8e-06 | 0.0707
x2 = 0.0002038, x1 = 1.8e-07 | 0.0666
x2 = 0.0002038, x1 = 9e-07 | 0.0692
x2 = 0.0002038, x1 = 1.8e-06 | 0.0716
x2 = 0.0002092, x1 = 1.8e-07 | 0.0673
x2 = 0.0002092, x1 = 9e-07 | 0.0702
x2 = 0.0002092, x1 = 1.8e-06 | 0.0725
x2 = 0.0002147, x1 = 1.8e-07 | 0.0681
x2 = 0.0002148, x1 = 9e-07 | 0.0711
x2 = 0.0002148, x1 = 1.8e-06 | 0.0734
x2 = 0.00022, x1 = 1.8e-07 | 0.0689
x2 = 0.00022, x1 = 9e-07 | 0.072
x2 = 0.00022, x1 = 1.8e-06 | 0.0743
x2 = 0.0002254, x1 = 1.8e-07 | 0.0696
x2 = 0.0002254, x1 = 9e-07 | 0.0729
x2 = 0.0002254, x1 = 1.8e-06 | 0.0752
x2 = 0.0002306, x1 = 1.8e-07 | 0.0703
x2 = 0.0002306, x1 = 9e-07 | 0.0739
x2 = 0.0002306, x1 = 1.8e-06 | 0.0761
x2 = 0.0002358, x1 = 1.8e-07 | 0.071
x2 = 0.0002358, x1 = 9e-07 | 0.0747
x2 = 0.0002358, x1 = 1.8e-06 | 0.077
x2 = 0.0002411, x1 = 1.8e-07 | 0.0717
x2 = 0.0002411, x1 = 9e-07 | 0.0756
x2 = 0.0002411, x1 = 1.8e-06 | 0.0778
